According to US20020019527A1 (priority 2000, published 2002):
Counter-ions that a name gives are not always drawn. Like-named read-outs stand apart in the source and are kept apart here.

Biological target: T1, Farnesyltransferase (FTase) (Bos taurus, UniProt P29702+P49355)
T1 construct: precipitation from a beef brain homogenate; from tissue; host or cells: bovine brain
Assay: Farnesyltransferase inhibition (scintillation proximity assay, [3H]-FPP / biotin-K-ras peptide)
Type: biochemical, bovine
Procedure, shortened: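 Bovine brain FTase, partially purified by 30–50% saturated ammonium sulfate precipitation and DEAE Sepharose chromatography, separated from GGTase I/II. Scintillation proximity read-out of [3H]-FPP transfer to biotin-K-ras peptide, counted 1 h after quench. Compounds added from ethanol with 10-fold dilution into assay.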

[1] = compound at 10^−6 M, bovine FTase, 37° C., 30 minutes

T1 sequence (P49355 whole entry, one chain of several): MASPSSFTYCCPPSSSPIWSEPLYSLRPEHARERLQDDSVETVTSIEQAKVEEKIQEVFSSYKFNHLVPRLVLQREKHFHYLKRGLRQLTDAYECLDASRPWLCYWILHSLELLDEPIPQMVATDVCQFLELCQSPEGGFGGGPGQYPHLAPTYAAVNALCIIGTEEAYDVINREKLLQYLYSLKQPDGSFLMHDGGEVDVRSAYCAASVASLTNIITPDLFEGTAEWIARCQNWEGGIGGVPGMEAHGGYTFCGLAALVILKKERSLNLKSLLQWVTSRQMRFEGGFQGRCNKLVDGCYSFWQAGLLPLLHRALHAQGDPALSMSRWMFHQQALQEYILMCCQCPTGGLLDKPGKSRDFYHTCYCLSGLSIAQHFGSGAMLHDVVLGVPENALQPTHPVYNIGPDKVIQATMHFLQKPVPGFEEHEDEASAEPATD

COc1cccc(COC(c2ccc(C#N)c(-c3ccccc3C)c2)c2cncn2C)c1 (stereo not shown) [Example 134, 5-(((3-methoxybenzyl)oxy)(1-methyl-1H-imidazol-5-yl)methyl)-2′-methyl(1,1′-biphenyl)-2-carbonitrile hydrochloride] was tested. Which inhibition at 1 µM [1] did it give?
Its inhibition at 1 µM is 93%.

With Cc1ccccc1-c1cc(C(OCc2ccc(S(C)(=O)=O)cc2)c2cncn2C)ccc1C#N.Cl (stereo not shown) [Example 151] as the compound, how does the “% Inhibition at 10^−6M” value read?
The value was 94%.

COc1cccc(-c2nc(COC(c3ccc(C#N)c(-c4ccccc4C)c3)c3cncn3C)no2)c1 (stereo not shown) [Example 173, 5-(((5-(3-methoxyphenyl)-1,2,4-oxadiazol-3-yl)methoxy)(1-methyl-1H-imidazol-5-yl)methyl)-2′-methyl(1,1′-biphenyl)-2-carbonitrile hydrochloride] was tested. Which inhibition at 1 µM [1] did it give?
The inhibition at 1 µM was 80%.

Cc1ccccc1-c1cc(N(Cc2ccccc2)Cc2cncn2C)ccc1C#N [Example 226, 5-(benzyl((1-methyl-1H-imidazol-5-yl)methyl)amino)-2′-methyl(1,1-biphenyl)-2-carbonitrile] was tested. Which inhibition at 1 µM [1] did it give?
Its inhibition at 1 µM is 100%.

How did the inhibition at 1 µM [1] turn out when COc1cc(COC(c2ccc(C#N)c(-c3ccccc3C)c2)c2cncn2C)cc(OC)c1 (stereo not shown) [Example 150, 5-(((3,5-dimethoxybenzyl)oxy)(1-methyl-1H-imidazol-5-yl)methyl)-2′-methyl(1,1′-biphenyl)-2-carbonitrile hydrochloride] was run?
The inhibition at 1 µM was 93%.

For Cn1cncc1C(OCc1ccc(C#N)cc1)c1ccc(C#N)c(-c2cccc3cnccc23)c1 (stereo not shown) [Example 44, 4-(((4-cyanobenzyl)oxy)(1-methyl-1H-imidazol-5-yl)methyl)-2-(5-isoquinolinyl)benzonitrile], which inhibition at 1 µM [1] is on record?
Its inhibition at 1 µM is 100%.

How did the inhibition at 1 µM [1] turn out when Cc1ccccc1-c1cc(C(OCc2ccccc2)c2cnnn2C)ccc1C#N (stereo not shown) [Example 81, 5-((benzyloxy)(1-methyl-1H-1,2,3-triazol-5-yl)methyl)-2′-methyl(1,1′-biphenyl)-2-carbonitrile hydrochloride] was run?
The inhibition at 1 µM was 14%.

For Cc1ccccc1-c1cc(C(OCc2ccccc2)c2ccsc2)ccc1C#N (stereo not shown) [Example 80, 5-((benzyloxy)(3-thienyl)methyl)-2′-methyl(1,1′-biphenyl)-2-carbonitrile], which inhibition at 1 µM [1] is on record?
The inhibition at 1 µM was 12%.

With Cc1ccccc1-c1cc(C(OCc2ncc(C(F)(F)F)cc2Cl)c2cncn2C)ccc1C#N (stereo not shown) [Example 182, 5-(((3-chloro-5-(trifluoromethyl)-2-pyridinyl)methoxy)(1-methyl-1H-imidazol-5-yl)methyl)-2′-methyl(1,1′-biphenyl)-2-carbonitrile hydrochloride] as the compound, how does the inhibition at 1 µM [1] read?
The inhibition at 1 µM was 89%.

Cc1ccccc1-c1cc(C(OCc2ccc(OC(F)(F)F)cc2)c2cncn2C)ccc1C#N.Cl (stereo not shown) [Example 180] was tested. Which “% Inhibition at 10^−6M” value did it give?
Its value is 95%.

Which inhibition at 1 µM [1] does the source give for CC(=O)Nc1ccc(CNC(c2ccc(C#N)c(-c3cccc4ccccc34)c2)c2cncn2C)cc1 (stereo not shown) [Example 53, N-(4-((((4-cyano-3-(1-naphthyl)phenyl)(1-methyl-1H-imidazol-5-yl)methyl)amino)methyl)phenyl)acetamide dihydrochloride] here?
Its inhibition at 1 µM is 100%.

With Cc1ccc(COC(c2ccc(C#N)c(-c3ccccc3C)c2)c2cncn2C)cc1.Cl (stereo not shown) [Example 127] as the compound, how does the “% Inhibition at 10^−6M” value read?
The value was 93%.

For Cn1cncc1C(OCc1ccc(Cl)cc1)c1ccc(C#N)c(-c2cccc3ccccc23)c1 (stereo not shown) [Example 66, 4-(((4-chlorobenzyl)oxy)(1-methyl-1H-imidazol-5-yl)methyl)-2-(1-naphthyl)benzonitrile hydrochloride], which inhibition at 1 µM [1] is on record?
Its inhibition at 1 µM is 100%.

Which inhibition at 1 µM [1] does the source give for COC(=O)c1ccc(CN(Cc2ccc(C#N)c(-c3cccc4ccccc34)c2)Cc2cncn2C)nc1 [Example 208, methyl 6-(((4-cyano-3-(1-naphthyl)benzyl)((1-methyl-1H-imidazol-5-yl)methyl)-amino)-methyl)nicotinate] here?
The inhibition at 1 µM was 95%.

For Cn1cncc1C(NC1CCN(C(=O)c2ccccc2)CC1)c1ccc(C#N)c(-c2cccc3ccccc23)c1 (stereo not shown) [Example 57, 4-(((1-benzoyl4-piperidinyl)amino)(1-methyl-1H-imidazol-5-yl)methyl)-2-(1-naphthyl)benzonitrile dihydrochloride], which inhibition at 1 µM [1] is on record?
The inhibition at 1 µM was 100%.

Cn1cncc1C(OCc1ccc(C#N)cc1)c1ccc(C#N)c(-c2ccnc3ccccc23)c1 (stereo not shown) [Example 19, 4-(((4-cyanobenzyl)oxy)(1-methyl-1H-imidazol-5-yl)methyl)-2-(4-quinolinyl)benzonitrile dihydrochloride] was tested. Which inhibition at 1 µM [1] did it give?
Its inhibition at 1 µM is 100%.

How did the inhibition at 1 µM [1] turn out when Cn1cncc1C(OCc1ccc(C#N)cc1)c1ccc(C#N)c(-c2cccc3ncccc23)c1 (stereo not shown) [Example 43, 4-(((4-cyanobenzyl)oxy)(1-methyl-1H-imidazol-5-yl)methyl)-2-(5-quinolinyl)benzonitrile dihydrochloride] was run?
Its inhibition at 1 µM is 100%.

How did the inhibition at 1 µM [1] turn out when Cn1cncc1C(OCc1ccc(Br)cc1)c1ccc(C#N)c(-c2cccc3ccccc23)c1 (stereo not shown) [Example 263, 4-(((4-bromobenzyl)oxy)(1-methyl-1H-imidazol-5-yl)methyl)-2-(1-naphthyl)benzonitrile] was run?
The inhibition at 1 µM was 100%.

How did the inhibition at 1 µM [1] turn out when Cn1cncc1CN(c1ccc(C#N)c(-c2cccc3ccccc23)c1)S(=O)(=O)c1ccccc1 [Example 267, N-(4-cyano-3-(1-naphthyl)phenyl)-N-((1-methyl-1H-imidazol-5-yl)methyl)benzenesulfonamide] was run?
Its inhibition at 1 µM is 100%.

For Cn1cncc1C(OCc1ccc(C#N)cc1)c1ccc(C#N)c(-c2cc3ccccc3s2)c1 (stereo not shown) [Example 203, 2-(1-benzothien-2-yl)-4-(((4-cyanobenzyl)oxy)(1-methyl-1H-imidazol-5-yl)methyl)benzonitrile hydrochloride], which inhibition at 1 µM [1] is on record?
Its inhibition at 1 µM is 86%.

For Cc1ccccc1-c1cc(C(OCc2ccc(C(=O)N(C)C)cc2)c2cncn2C)ccc1C#N (stereo not shown) [Example 190, 4-(((6-cyano-2′-methyl(1,1′-biphenyl)-3-yl)(1-methyl-1H-imidazol-5-yl)methoxy)methyl)-N,N-dimethylbenzamide], which inhibition at 1 µM [1] is on record?
Its inhibition at 1 µM is 90%.

How did the inhibition at 1 µM [1] turn out when Cn1cncc1C(CCc1ccccc1)NCc1ccc(C#N)c(-c2cccc3ccccc23)c1 (stereo not shown) [Example 260, 4(((1-(1-methyl-1H-imidazol-5-yl)-3-phenylpropyl)amino)methyl)-2-(1-naphthyl)benzonitrile dihydrochloride] was run?
Its inhibition at 1 µM is 90%.

How did the inhibition at 1 µM [1] turn out when Cn1cncc1C(NCCc1ccccc1)c1ccc(C#N)c(-c2cccc3ccccc23)c1 (stereo not shown) [Example 31, 4-((1-methyl-1H-imidazol-5-yl)(phenethylamino)methyl)-2-(1-naphthyl)benzonitrile] was run?
Its inhibition at 1 µM is 100%.

For COc1cc(COC(c2ccc(C#N)c(-c3ccccc3C)c2)c2cncn2C)cc(OC)c1OC.Cl (stereo not shown) [Example 148], which “% Inhibition at 10^−6M” value is on record?
The value was 95%.

With Cc1ccccc1-c1cc(C(NCC2CCCCC2)c2cncn2C)ccc1C#N (stereo not shown) [Example 24, 5-(((cyclohexylmethyl)amino)(1-methyl-1H-imidazol-5-yl)methyl)-2′-methyl(1,1′-biphenyl)-2-carbonitrile] as the compound, how does the inhibition at 1 µM [1] read?
Its inhibition at 1 µM is 100%.

How did the inhibition at 1 µM [1] turn out when N#Cc1ccc(N(Cc2ccccc2)Cc2cnc[nH]2)cc1-c1cccc2ccccc12 [Example 265, 4-(benzyl(1H-imidazol-5-ylmethyl)amino)-2-(1-naphthyl)benzonitrile] was run?
The inhibition at 1 µM was 100%.

Which inhibition at 1 µM [1] does the source give for Cc1ccccc1-c1cc(C(OCc2ccc(Cl)c(Cl)c2)c2cncn2C)ccc1C#N (stereo not shown) [Example 125, 5-(((3,4-dichlorobenzyl)oxy)(1-methyl-1H-imidazol-5-yl)methyl)-2′-methyl(1,1′-biphenyl)-2-carbonitrile hydrochloride] here?
The inhibition at 1 µM was 97%.

Cc1ccccc1-c1cc(C(NCc2ccccc2)c2cncn2C)ccc1C#N (stereo not shown) [Example 23, 5-((benzylamino)(1-methy-1H-imidazol-5-yl)methyl)-2′-methyl(1,1′-biphenyl)-2-carbonitrile] was tested. Which “% Inhibition at 10^−6M” value [1] did it give?
The value was 100%.

How did the inhibition at 1 µM [1] turn out when Cc1ccccc1-c1cc(C(OCc2cc(F)ccc2F)c2cncn2C)ccc1C#N (stereo not shown) [Example 129, 5-(((2,5-difluorobenzyl)oxy)(1-methyl-1H-imidazol-5-yl)methyl)-2′-methyl(1,1′-biphenyl)-2-carbonitrile hydrochloride] was run?
Its inhibition at 1 µM is 93%.

Which inhibition at 1 µM [1] does the source give for Cn1cncc1C(OCc1ccccc1)c1ccc(C#N)c(-c2ccccc2)c1 (stereo not shown) [Example 87, 5-((benzyloxy)(1-methyl-1H-imidazol-5-yl)methyl)(1,1′-biphenyl)-2-carbonitrile hydrochloride] here?
Its inhibition at 1 µM is 89%.

With Cc1ccccc1-c1cc(C(OCc2c(C)ccc3ccccc23)c2cncn2C)ccc1C#N.Cl (stereo not shown) [Example 178] as the compound, how does the “% Inhibition at 10^−6M” value read?
Its value is 90%.

Cc1cc(COC(c2ccc(C#N)c(-c3ccccc3C)c2)c2cncn2C)c(C#N)cc1C#N (stereo not shown) [Example 144, 4-(((6-cyano-2′-methyl(1,1′-biphenyl)-3-yl)(1-methyl-1H-imidazol-5-yl)methoxy)methyl)-6-methylisophthalonitrile hydrochloride] was tested. Which inhibition at 1 µM [1] did it give?
Its inhibition at 1 µM is 96%.

Cc1ccccc1-c1cc(C(NC2CCN(C(=O)c3ccccc3)CC2)c2cncn2C)ccc1C#N (stereo not shown) [Example 16, 5-(((1-benzoyl-4-piperidinyl)amino)(1-methyl-1H-imidazol-5-yl)methyl)-2′-methyl(1,1′-biphenyl)-2-carbonitrile dihydrochloride] was tested. Which inhibition at 1 µM [1] did it give?
The inhibition at 1 µM was 100%.

Which inhibition at 1 µM [1] does the source give for Cn1cncc1C(OCc1ccc(C#N)cc1)c1ccc(F)c(-c2cccc3ccccc23)c1 (stereo not shown) [Example 112, 4-(((4-fluoro-3-(1-naphthyl)phenyl)(1-methyl-1H-imidazol-5-yl)methoxy)methyl)benzonitrile para-toluenesulfonic acid salt] here?
The inhibition at 1 µM was 100%.

N#Cc1ccc(COC(c2ccc(C#N)c(-c3cccc4ccccc34)c2)c2cn(C(c3ccccc3)(c3ccccc3)c3ccccc3)cn2)cc1 (stereo not shown) [Example 49, 4-(((4-cyanobenzyl)oxy)(1-trityl-1H-imidazol-4-yl)methyl)-2-(1-naphthyl)benzonitrile] was tested. Which inhibition at 1 µM [1] did it give?
Its inhibition at 1 µM is 62%.

Cc1ccccc1-c1cc(C(OCc2cccc3cccnc23)c2cncn2C)ccc1C#N.Cl (stereo not shown) [Example 149] was tested. Which “% Inhibition at 10^−6M” value did it give?
The value was 93%.

Cn1cncc1C(NCc1ccc(C#N)c(I)c1)c1ccc(C#N)c(-c2cccc3ccccc23)c1 (stereo not shown) [Example 37, 4-(((4-cyano-3-iodobenzyl)amino)(1-methyl-1H-imidazol-5-yl)methyl)-2-(1-naphthyl)benzonitrile dihydrochloride] was tested. Which inhibition at 1 µM [1] did it give?
Its inhibition at 1 µM is 100%.
